Test results: the supplement of paper PMC10307832

Tests used:
Assay in all cases: relative viability (nuclei count vs DMSO), 5 days (fraction); higher = more cells survive
[1] = compound: CCc1cnn2c(NCc3ccc[n+]([O-])c3)cc(N3CCCC[C@H]3CCO)nc12 [Dinaciclib] + Cc1cc(Nc2cc(N3CCN(C)CC3)nc(Sc3ccc(NC(=O)C4CC4)cc3)n2)n[nH]1 [Tozasertib] (partner 0.1 µM)
In short: (§1)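 Lung cancer cell lines, seeded in 1536-well plates, were treated the following day by pin tool with a single drug or with five library-drug doses (not always all listed) in √10 steps on top of a fixed anchor-drug dose. Cells were fixed and nuclei stained in one step after 5 days, and nuclei were counted. Relative viability is the nuclei count for treated wells divided by that for vehicle wells, reported as medians of duplicate plates.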

[2] = compound: CCc1cnn2c(NCc3ccc[n+]([O-])c3)cc(N3CCCC[C@H]3CCO)nc12 [Dinaciclib] + COc1cc2c(Oc3ccc(NC(=O)C4(C(=O)Nc5ccc(F)cc5)CC4)cc3F)ccnc2cc1OCCCN1CCOCC1 [Foretinib] (partner 0.25 µM)
In short: as §1

[3] = compound: CCc1cnn2c(NCc3ccc[n+]([O-])c3)cc(N3CCCC[C@H]3CCO)nc12 [Dinaciclib] + Nc1ncn([C@H]2C[C@H](O)[C@@H](CO)O2)c(=O)n1 [Decitabine] (partner 2 µM)
In short: as §1

[4] = compound: CCc1cnn2c(NCc3ccc[n+]([O-])c3)cc(N3CCCC[C@H]3CCO)nc12 [Dinaciclib] + Cc1nc(Nc2ncc(C(=O)Nc3c(C)cccc3Cl)s2)cc(N2CCN(CCO)CC2)n1 [Dasatinib] (partner 0.075 µM)
In short: as §1

[5] = compound: CCc1cnn2c(NCc3ccc[n+]([O-])c3)cc(N3CCCC[C@H]3CCO)nc12 [Dinaciclib] + CC1(C)CCC(c2ccc(Cl)cc2)=C(CN2CCN(c3ccc(C(=O)NS(=O)(=O)c4ccc(N[C@H](CCN5CCOCC5)CSc5ccccc5)c(S(=O)(=O)C(F)(F)F)c4)cc3)CC2)C1 [Navitoclax] (partner 0.5 µM)
In short: as §1

Cell Line	relative viability ([1]; first compound 0.009487 µM)	relative viability ([1]; first compound 0.03 µM)	relative viability ([1]; first compound 0.09487 µM)	relative viability ([1]; first compound 0.3 µM)	relative viability ([2]; first compound 0.009487 µM)	relative viability ([2]; first compound 0.03 µM)	relative viability ([2]; first compound 0.09487 µM)	relative viability ([2]; first compound 0.3 µM)	relative viability ([3]; first compound 0.009487 µM)	relative viability ([3]; first compound 0.03 µM)	relative viability ([3]; first compound 0.09487 µM)	relative viability ([3]; first compound 0.3 µM)	relative viability ([4]; first compound 0.009487 µM)	relative viability ([4]; first compound 0.03 µM)	relative viability ([4]; first compound 0.09487 µM)	relative viability ([4]; first compound 0.3 µM)	relative viability ([5]; first compound 0.009487 µM)	relative viability ([5]; first compound 0.03 µM)	relative viability ([5]; first compound 0.09487 µM)	relative viability ([5]; first compound 0.3 µM)
201T	0.915	0.293	0.274	0.263	1.19	0.174	0.171	0.15	0.943	0.767	0.168	0.209	0.621	0.428	0.265	0.245	1.31	1.19	0.416	0.32
A549	–	–	–	–	0.952	0.0544	0.0214	0.0246	0.293	0.205	0.0304	0.0308	–	–	–	–	1.05	0.0352	0.038	0.0398
A-427	0.236	0.0917	0.0666	0.0775	0.955	0.117	0.0874	0.0871	0.508	0.153	0.119	0.116	0.486	0.111	0.0662	0.0725	0.94	0.434	0.089	0.0921
ABC-1	0.199	0.174	0.11	0.0868	0.876	0.166	0.126	0.106	0.963	0.338	0.297	0.237	0.466	0.133	0.137	0.0934	–	–	–	–
BEN	0.568	0.638	0.268	0.348	0.866	0.845	0.153	0.176	0.88	0.572	0.245	0.313	0.362	0.435	0.157	0.153	0.102	0.0524	0.0833	0.0414
CAL-12T	0.166	0.0862	0.0939	0.0838	1.07	0.105	0.13	0.116	–	–	–	–	0.11	0.0662	0.082	0.0795	0.487	0.0619	0.0673	0.0743
COR-L23	0.214	0.0848	0.0671	0.0704	0.871	0.118	0.0996	0.0936	0.388	0.114	0.0933	0.0952	0.349	0.0817	0.0588	0.0557	0.994	0.0863	0.066	0.0652
COR-L 105	0.369	0.304	0.25	0.208	1.17	0.644	0.247	0.259	0.618	0.408	0.304	0.278	0.25	0.201	0.191	0.187	0.496	0.213	0.214	0.218
ChaGo-K-1	0.22	0.168	0.132	0.111	0.918	0.245	0.12	0.14	0.531	0.287	0.138	0.128	0.529	0.154	0.116	0.127	0.541	0.219	0.173	0.17
EKVX	0.398	0.253	0.074	0.0722	0.93	0.0805	0.246	0.0963	0.388	0.196	0.136	0.123	0.548	0.415	0.159	0.223	0.738	0.298	0.0814	0.106
EMC-BAC-2	0.265	0.209	0.142	0.121	1.14	0.319	0.159	0.148	0.991	0.26	0.22	0.24	0.312	0.117	0.13	0.109	1.22	0.576	0.205	0.213
EPLC-272H	0.229	0.0357	0.0443	0.0467	0.591	0.0464	0.0366	0.0314	0.36	0.088	0.0389	0.0501	0.381	0.089	0.0366	0.0325	1.05	0.576	0.411	0.0616
H3255	0.678	0.578	0.256	0.218	0.841	0.76	0.217	0.2	0.642	0.237	0.157	0.147	0.289	0.313	0.271	0.195	0.487	0.0787	0.0605	0.0759
HARA	0.105	0.0553	0.0492	0.0424	0.583	0.0737	0.0603	0.0628	0.437	0.205	0.135	0.101	0.254	0.22	0.0491	0.0506	1.04	0.0747	0.0574	0.0511
HCC-15	0.407	0.0586	0.0549	0.0646	0.652	0.12	0.109	0.107	0.521	0.139	0.13	0.129	0.424	0.086	0.0767	0.095	0.587	0.244	0.0855	0.0945
HCC-44	0.594	0.204	0.206	0.184	–	–	–	–	0.804	0.406	0.344	0.317	–	–	–	–	1.08	0.15	0.149	0.161
HCC-78	0.345	0.282	0.144	0.138	0.613	0.386	0.174	0.18	0.612	0.32	0.206	0.205	0.379	0.181	0.148	0.162	0.763	0.35	0.107	0.136
